Source: paper PMC3842914, “Meleagrin, a New FabI Inhibitor from Penicillium chryosogenum with at Least One Additional Mode of Action” (PLoS ONE, 2013)
In brackets after ≈: the same amount, converted by molar mass. Where two headings read alike, the source gives them in different places.

Assays:
[1] = molecular target: T1, S. aureus FabI (Staphylococcus aureus, UniProt Q6GI75); assay: Fluorescence quenching assay (direct binding); conditions: increasing amounts of compound; FabI fluorescence at 307 nm
T1 construct: made in house
T1 sequence (Q6GI75 1-256): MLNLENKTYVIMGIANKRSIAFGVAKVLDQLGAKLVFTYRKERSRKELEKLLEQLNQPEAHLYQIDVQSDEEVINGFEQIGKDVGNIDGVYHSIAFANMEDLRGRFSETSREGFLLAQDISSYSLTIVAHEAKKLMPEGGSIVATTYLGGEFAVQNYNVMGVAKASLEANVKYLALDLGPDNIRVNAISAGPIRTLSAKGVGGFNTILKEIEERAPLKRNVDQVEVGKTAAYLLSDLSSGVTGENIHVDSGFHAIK
Experimental: Fluorescence spectra were measured using a SHIMADZU fluorescence spectrophotometer (model RF-5310PC). […] Protein quenching was monitored at 25°C by using 5-nm excitation and 5-nm emission wavelength. The excitation wavelength was 280 nm, and the emission spectra were measured between 290 and 430 nm.

[2] = tested on: S. pneumoniae KCTC 3932; assay: Inhibition of macromolecular biosynthesis (radiolabeled precursor incorporation) in S. pneumoniae; format: cell-based, Streptococcus pneumoniae; conditions: drugs at 2 times the MIC
Experimental: (§1) To monitor the effects of compound 1 on lipid, DNA, RNA, protein, and cell wall biosynthesis, its effects on the incorporation of [1-^14C] acetate (50 mCi/mmol), [2-^14C] thymidine (59.8 mCi/mmol), [U-^14C] uridine (539 mCi/mmol), L-[U-^14C] leucine (306 mCi/mmol) or L-[U-^14C] isoleucine (329 mCi/mmol), and N-acetyl-D-[1-^14C] glucosamine (58.1 mCi/mmol) into S. aureus and S. pneumoniae were measured as described previously. S. aureus was exponentially grown to an A650 of 0.2 in Mueller–Hinton broth. S. pneumoniae was grown in tryptic soy broth supplemented with 5% sheep blood. […] An equal volume of DMSO solvent was added to the untreated control. After incubation with the radiolabeled precursors at 37°C for 1 h, followed by centrifugation, the cell pellets were washed twice with PBS buffer. After acetate incorporation, the total cellular lipids were extracted with chloroform-methanol-water. The incorporated radioactivity in the chloroform phase was measured by scintillation counting. For the other precursors, incorporation was terminated by adding 10% (w/v) TCA and cooling on ice for 20 min. The precipitated material was collected on Whatman GF/C glass microfiber filters, washed with TCA and ethanol, dried, and counted using a scintillation counter. The total counts incorporated at 1 h of incubation without inhibitors ranged from >7,000 for [U-^14C] uridine to <13,000 for [1-^14C] acetate. […] In all experiments, known antibacterial agents were included as positive controls.

[3] = tested on: E. coli EW1b(pBAD-fabI); assay: Overexpression assay, MIC for fabI-overexpressing E. coli EW1b (pBAD-fabI); format: cell-based; conditions: Escherichia coli
Experimental: (§2) Whole-cell antimicrobial activity was determined by broth microdilution as described previously. The test strains except for S. pneumoniae were grown to mid-log phase in Mueller–Hinton broth and diluted 1,000-fold in the same medium. Cells (10^5/mL) were inoculated into Mueller–Hinton broth and dispensed at 0.2 mL/well into a 96-well microtiter plate. S. pneumoniae was grown in tryptic soy broth supplemented with 5% sheep blood. MICs were determined in triplicate by serial 2-fold dilutions of test compounds. […] Bacterial growth was determined by measuring the absorption at 650 nm by using a microtiter ELISA reader.
(§3) An overexpression assay using S. aureus RN4220, S. aureus RN4220 (pE194), and S. aureus RN4220 (pE194-fabI) was conducted to perform target validation of FabI inhibitors as described previously. Additionally, both fabI- and fabK-overexpressing E. coli were constructed to test a multitarget effect of the compounds. The wild-type fabI gene from the genomic DNA of E. coli W3110 was amplified by PCR by using the primers 5′-[…]-3′ and 5′-[…]-3′. The wild-type fabK gene from the genomic DNA of S. pneumoniae KCTC 5412 was amplified by PCR by using the primers 5′-[…]-3′ and 5′-[…] […]-3′. The resulting products were cloned into the pBAD-TOPO TA expression vector (Invitrogen, Carlsbad, CA, USA) to yield the pBAD-fabI and pBAD-fabK recombinant plasmids, which placed the expression of the genes fabI and fabK, respectively, under the control of the arabinose promoter. Recombinant pBAD-fabI and pBAD-fabK were then introduced into the pump-negative (tolC) E. coli EW1b via electroporation to generate E. coli EW1b (pBAD-fabI) and E. coli EW1b (pBAD-fabK), respectively.

[4] = tested on: E. coli EW1b(pBAD); assay: Overexpression assay, MIC for vector-containing E. coli EW1b (pBAD); format: cell-based; conditions: Escherichia coli
Experimental: as §2, §3

[5] = tested on: E. coli EW1b(pBAD-fabK); assay: Overexpression assay, MIC for fabK-overexpressing E. coli EW1b (pBAD-fabK); format: cell-based; conditions: Escherichia coli
Experimental: as §2, §3

[6] = tested on: E. coli EW1b; assay: Overexpression assay, MIC for pump-negative (tolC) E. coli EW1b; format: cell-based; conditions: Escherichia coli
Experimental: as §2, §3

[7] = tested on: S. aureus RN4220; assay: Inhibition of macromolecular biosynthesis (radiolabeled precursor incorporation) in S. aureus; format: cell-based, Staphylococcus aureus; conditions: drugs at 2 times the MIC
Experimental: as §1

[8] = tested on: S. aureus RN4220 (pE194); assay: Overexpression assay, MIC for vector-containing S. aureus RN4220 (pE194); format: cell-based; conditions: Staphylococcus aureus, read-out: MIC S. aureus (pE194)
Experimental: as §2, §3

[9] = tested on: S. aureus RN4220; assay: MIC by broth microdilution, S. aureus RN4220 (wild type); format: cell-based, Staphylococcus aureus; conditions: Staphylococcus aureus; S. aureus RN4220 (wild type)
Experimental: as §2

[10] = tested on: S. aureus RN4220 (pE194-fabI); assay: Overexpression assay, MIC for fabI-overexpressing S. aureus RN4220 (pE194-fabI); format: cell-based; conditions: Staphylococcus aureus, read-out: MIC S. aureus (pE194-fabI)
Experimental: as §2, §3

[11] = molecular target: T1, S. aureus FabI; assay: S. aureus FabI enzyme assay (NADPH use at 340 nm, t-o-NAC thioester substrate); format: biochemical
Description: S. aureus FabI and E. coli FabI enzymes were cloned, overexpressed, and purified as described previously. The wild-type fabK gene was amplified by PCR from genomic DNA obtained from Streptococcus pneumoniae KCTC 5412 by using the primers 5′-[…]-3′ and 5′-[…]-3′, which contained NdeI and XhoI restriction sites, respectively. After the DNA sequence was confirmed, the gene was cloned into the pET22b vector (Novagen, Gibbstown, NJ, USA). The construct was transformed into E. coli BL21 (DE3) for expression following induction with isopropylthiogalactoside. The C-terminal His-tagged protein was purified as described previously. Assays were conducted in half-area, 96-well microtiter plates. The compounds were dissolved in DMSO and evaluated in 100-μL assay mixtures containing components specific for each enzyme (see below). Reduction of the trans-2-octenoyl N-acetylcysteamine (t-o-NAC thioester) substrate analog was measured spectrophotometrically following the utilization of NADH or NADPH at 340 nm at 30°C for the linear period of the assay. S. aureus FabI assays contained 50 mM sodium acetate (pH 6.5), 200 μM t-o-NAC thioester, 200 μM NADPH, and 150 nM S. aureus FabI.
NADH was used as a cofactor rather than NADPH for the E. coli FabI assay. Substrate concentrations used for the Lineweaver–Burk plot were 100, 200, 300, and 400 μM, whereas the concentrations of the cofactor were 100, 200, 400, and 600 μM. The rate of decrease in the amount of NADPH in each reaction was measured with a microtiter enzyme-linked immunosorbent assay (ELISA) reader by using the SOFTmax PRO software (Molecular Devices, Sunnyvale, CA, USA). The inhibitory activity was calculated according to the following formula: % of inhibition = 100× [1− (rate in the presence of compound/rate in the untreated control)]. IC50 values were calculated by fitting the data to a sigmoid equation. An equal volume of DMSO solvent was used for the untreated control. FabK assays contained 100 mM sodium acetate (pH 6.5), 2% glycerol, 200 mM NH4Cl, 50 µM t-o-NAC thioester, 200 µM NADH, and 150 nM S. pneumoniae FabK.

With `NC[C@H]1O[C@H](O[C@H]2[C@H](O)[C@@H](O[C@H]3O[C@H](CO)[C@@H](O)[C@H](N)[C@H]3O)[C@H](N)C[C@@H]2N)[C@H](O)[C@@H](O)[C@@H]1O` [kanamycin, reference compound] the “Fluorescence quenching of S. aureus FabI” value [1] was “did not”.

For `C/C=C/C/C=C/CCC(=O)[C@H]1O[C@H]1C(N)=O` [cerulenin, reference compound], the “Inhibition of precursor incorporation, [1-14C] Acetate” value [2] was 95%.

With `CCCCC[C@H](CC(=O)NO)C(=O)N[C@H](C(=O)N1CCC[C@H]1CO)C(C)C` [Actinonin] the MIC ([3]; read-out: MIC E. coli EW1b(pBAD-fabI) (+) Ara) was 1 µg/mL (≈ 2.59 µM), the MIC ([3]; read-out: MIC E. coli EW1b(pBAD-fabI) (−) Ara) was 1 µg/mL (≈ 2.59 µM) and the MIC ([4]; read-out: MIC E. coli EW1b(pBAD) (+) Ara) was 1 µg/mL (≈ 2.59 µM). The MIC ([4]; read-out: MIC E. coli EW1b(pBAD) (−) Ara) was 1 µg/mL (≈ 2.59 µM), the MIC ([5]; read-out: MIC E. coli EW1b(pBAD-fabK) (+) Ara) was 1 µg/mL (≈ 2.59 µM) and the MIC ([5]; read-out: MIC E. coli EW1b(pBAD-fabK) (−) Ara) was 1 µg/mL (≈ 2.59 µM). The MIC ([6]; read-out: MIC E. coli EW1b (+) Ara) was 1 µg/mL (≈ 2.59 µM) and the MIC ([6]; read-out: MIC E. coli EW1b (−) Ara) was 1 µg/mL (≈ 2.59 µM).

In the case of `CN[C@H](CC(C)C)C(=O)N[C@H]1C(=O)N[C@@H](CC(N)=O)C(=O)N[C@H]2C(=O)N[C@H]3C(=O)N[C@H](C(=O)N[C@H](C(=O)O)c4cc(O)cc(O)c4-c4cc3ccc4O)[C@H](O)c3ccc(c(Cl)c3)Oc3cc2cc(c3O[C@@H]2O[C@H](CO)[C@@H](O)[C@H](O)[C@H]2O[C@H]2C[C@](C)(N)[C@H](O)[C@H](C)O2)Oc2ccc(cc2Cl)[C@H]1O` [vancomycin, reference compound], the “Inhibition of precursor incorporation, N-Acetyl-D-[1-14C] Glucosamine” value [2] is reported as 88% and the “Inhibition of precursor incorporation, N-Acetyl-D-[1-14C] Glucosamine” value [7] is reported as 79%.

For `Cc1onc(-c2ccccc2)c1C(=O)N[C@@H]1C(=O)N2[C@@H]1SC(C)(C)[C@@H]2C(=O)O` [Oxacillin, reference compound], the MIC [8] was 0.25 µg/mL (≈ 0.623 µM), the MIC [9] was 0.25 µg/mL (≈ 0.623 µM) and the MIC [10] was 0.25 µg/mL (≈ 0.623 µM). The IC50 [11] was > 100 µM.
